What was measured:
Assay type in all cases: biochemical, Trichoderma atroviride
FgenL model RNA = assay: TapeStation Assay, FgenL model RNA; parameters: Conc. FgenL#1 / Conc. FgenL#2: unit not given here; conditions: for % Control N = 1 / % Control N = 2 / % Control Average: FgenL RNA, 20 mM amino acids, 50 mM CAPS pH 11, 50° C. 15 min; for % Control N = 1 / % Control N = 2: vs Time 0; for % Control Average: vs Time 0, Avg N=2; for Conc. FgenL#1 / Conc. FgenL#2: intact FgenL RNA after 15 min at 50° C.; for Conc. FgenL#1: 20 mM amino acids in 50 mM CAPS pH 11, run #1; for Conc. FgenL#2: 20 mM amino acids in 50 mM CAPS pH 11, run #2
Procedure, shortened: (§1)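 Chi18 or FgenL model RNA at 50 ng/μL in 50 mM CAPS pH 11 was mixed with amino acids (stocks in CAPS, readjusted to >pH 11) and heated at 50° C for 0 or 15 minutes; time-0 samples stayed on ice. Intact RNA was measured by capillary electrophoresis with optical detection and compared with a no-degradation baseline.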

Chi18 model RNA [1] = assay: TapeStation Assay, Chi18 model RNA; parameters: Conc. chi18#1 / Conc. chi18#2: unit not given here; conditions: for % Control N = 1 / % Control N = 2 / % Control Avg.: Chi18 RNA, 20 mM amino acids, 50 mM CAPS pH 11, 50° C. 15 min; for % Control N = 1 / % Control N = 2: vs Time 0; for % Control Avg.: vs Time 0, Avg N=2; for Conc. chi18#1 / Conc. chi18#2: intact Chi18 RNA after 15 min at 50° C.; for Conc. chi18#1: 20 mM amino acids in 50 mM CAPS pH 11, run #1; for Conc. chi18#2: 20 mM amino acids in 50 mM CAPS pH 11, run #2
Procedure, shortened: as §1

FgenL mRNA construct = assay: Size Exclusion Base Hydrolysis Degradation Assay, FgenL; conditions: 25 mM amino acid; for T0 R1 peak area at 250 nm: FgenL 0.1 mg/mL, 50 mM CAPS, T=0, replicate 1; for T2 Avg, peak area as percentage of T=0 / T2 R1 peak area at 250 nm / T10 Avg, peak area as percentage of T=0 / T10 R1 peak area at 250 nm / T24 Avg, peak area as percentage of T=0 / T24 R1 peak area at 250 nm / T0 Avg, peak area as percentage of T=0: FgenL; for T2 Avg, peak area as percentage of T=0 / T2 R1 peak area at 250 nm / T10 Avg, peak area as percentage of T=0 / T10 R1 peak area at 250 nm / T24 Avg, peak area as percentage of T=0 / T24 R1 peak area at 250 nm: 50 mM CAPS pH 11, room temperature; for T2 Avg, peak area as percentage of T=0 / T2 R1 peak area at 250 nm: 2 hrs; for T2 R1 peak area at 250 nm / T10 R1 peak area at 250 nm / T24 R1 peak area at 250 nm: replicate 1; for T10 Avg, peak area as percentage of T=0 / T10 R1 peak area at 250 nm: 10 hrs; for T24 Avg, peak area as percentage of T=0 / T24 R1 peak area at 250 nm: 24 hrs; for T0 Avg, peak area as percentage of T=0: T=0 (reference)
Procedure: Basic assay procedure: RNA samples were diluted to 1.0 mg/mL in DNAase/RNAase free water. Amino acids were dissolved in water to a stock solution of 100 mM and a solution of 500 mM CAPS pH 11 was used. The two mRNA constructs tested were FgenL and Chi18. Each individual sample volume was 50 μL. To determine the amount of 1 M NaOH needed to adjust the final pH to 11.0 after the addition of all sample components, the sample volume was increased 100 fold (5 mL), the volume of 1 M NaOH recorded and this value was translated back down to the 50 μL sample volume.
The mRNA and amino acid were allowed to incubate for one hour prior to the addition of CAPS pH 11. All steps of the assay were conducted at room temperature.
Degradation reaction: After the CAPS addition, the samples were injected onto the Waters H-Class UPLC system to record the first timepoint, T=O. This resulting chromatogram was processed by integrating the area of absorbance at 250 nm for the mRNA construct. Immediately following this timepoint, the pH was adjusted to 11. Subsequent time points (2 hrs, 10 hrs, and 24 hrs) recorded the Absorbance Units (peak area) at 250 nm as a percentage of the peak area determined at T=O. Integration of the chromatogram for subsequent timepoints was conducted by analyzing the area of absorbance at 250 nm contained within the same time window in which the peak eluted in T=0 for the 100% intact mRNA.

Chi18 model RNA [2] = assay: Droplet Digital Polymerase Chain Reaction (ddPCR) Assay, Chi18; conditions: percent protection, pH 11.0, 30° C., 16 hours, n = 2
Procedure, shortened: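 Chi18 (25 fg/μL) or FgenL (10 fg/μL) RNA at pH 11.0 incubated 16 h with amino acids (10-point half-log series, ~300 mM top stock in CAPS), at 30° C or 44° C respectively. Intact RNA reverse-transcribed, ddPCR 5′-positive droplet fraction taken as protection; EC50 from four-parameter logistic fit.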

Row | SMILES | % Control N = 1 (FgenL model RNA) [%] | % Control N = 2 (FgenL model RNA) [%] | % Control Average (FgenL model RNA) [%] | Conc. FgenL#1 (FgenL model RNA) | Conc. FgenL#2 (FgenL model RNA) | % Control N = 1 (Chi18 model RNA [1]) [%] | % Control N = 2 (Chi18 model RNA [1]) [%] | % Control Avg. (Chi18 model RNA [1]) [%] | Conc. chi18#1 (Chi18 model RNA [1]) | Conc. chi18#2 (Chi18 model RNA [1]) | T0 R1 peak area at 250 nm (FgenL mRNA construct) | T2 Avg, peak area as percentage of T=0 (FgenL mRNA construct) [%] | T2 R1 peak area at 250 nm (FgenL mRNA construct) | T10 Avg, peak area as percentage of T=0 (FgenL mRNA construct) [%] | T10 R1 peak area at 250 nm (FgenL mRNA construct) | T24 Avg, peak area as percentage of T=0 (FgenL mRNA construct) [%] | T24 R1 peak area at 250 nm (FgenL mRNA construct) | T0 Avg, peak area as percentage of T=0 (FgenL mRNA construct) [%] | EC50 (Chi18 model RNA [2]) [mM]
1 | NCCCC[C@H](N)C(=O)O [Lysine] | 19.9 | 17.6 | 18.7 | 6.85 | 6.12 | 22.0 | 15.5 | 18.7 | 11.7 | 8.18 | 17400 | 0.0 | 0 | 0.0 | 0 | 0.0 | 0 | 100.0 | > 30
2 | CSCC[C@H](N)C(=O)O [Methionine] | 35.4 | 32.6 | 34.0 | 12.2 | 11.3 | 49.7 | 49.7 | 49.7 | 26.5 | – | 15213 | 24.2 | 3658 | 0.0 | 0 | 0.0 | 0 | 100.0 | > 30
3 | N[C@@H](Cc1ccccc1)C(=O)O [Phenylalanine] | 13.8 | 6.9 | 10.4 | 4.76 | 2.4 | 17.2 | 25.3 | 21.3 | 9.19 | 13.4 | 18152 | 62.2 | 12662 | 1.7 | 605 | 0.0 | 0 | 100.0 | > 18
4 | O=C(O)[C@@H]1CCCN1 [Proline] | 21.8 | 20.3 | 21.0 | 7.52 | 7.03 | 37.0 | 34.6 | 35.8 | 19.7 | 18.3 | 17907 | 16.6 | 3380 | 0.0 | 0 | 0.0 | 0 | 100.0 | > 30
5 | N[C@@H](CO)C(=O)O [Serine] | 37.7 | 31.4 | 34.5 | 13 | 10.9 | 42.2 | 42.2 | 42.2 | 22.5 | – | 17044 | 46.6 | 7928 | 11.3 | 0 | 0.0 | 0 | 100.0 | > 30

Source: patent US20240122865A1, “Methods of Protecting RNA” (Pfizer Inc., priority 2021, published 2024)
